Laboratory results published in ChEMBL document CHEMBL3352750, “Novel indole based NNRTIs with improved potency against wild type and resistant HIV” (Bioorg Med Chem Lett, 2014).
pIC50: −log10 of the molar value. Calls of active or inactive are those of the source. No cut-off for these calls is given here.

Experiments:
[1] = tested on: Human immunodeficiency virus 1; assay: Antiviral activity against HIV1 infected in HEK293T cells by p24 ELISA based phenotypic assay; format: functional, organism-based; conditions: Human immunodeficiency virus 1, HEK-293T
[2] = tested on: Human immunodeficiency virus 1; assay: Antiviral activity against HIV1; format: functional, organism-based
[3] = Cytotoxicity against HEK293T cells; format: cell-based, HEK-293T; conditions: human
[4] = tested on: Human immunodeficiency virus 1; assay: Antiviral activity against HIV1 containing reverse transcriptase G190A mutant infected in HEK293T cells by p24 ELISA based phenotypic assay; format: functional, organism-based; conditions: HEK-293T
[5] = tested on: Human immunodeficiency virus 1; assay: Antiviral activity against HIV1 containing reverse transcriptase Y181C mutant infected in HEK293T cells by p24 ELISA based phenotypic assay; format: functional, organism-based; conditions: HEK-293T
[6] = tested on: Human immunodeficiency virus 1; assay: Antiviral activity against HIV1 containing reverse transcriptase K103N mutant infected in HEK293T cells by p24 ELISA based phenotypic assay; format: functional, organism-based; conditions: HEK-293T
[7] = tested on: Human immunodeficiency virus 1; assay: Antiviral activity against HIV1 containing reverse transcriptase V106M mutant infected in HEK293T cells by p24 ELISA based phenotypic assay; format: functional, organism-based; conditions: HEK-293T
[8] = tested on: Human immunodeficiency virus 1; assay: Antiviral activity against HIV1 containing reverse transcriptase E138Q mutant infected in HEK293T cells by p24 ELISA based phenotypic assay; format: functional, organism-based; conditions: HEK-293T
[9] = tested on: Human immunodeficiency virus 1; assay: Antiviral activity against HIV1 containing reverse transcriptase Y181I mutant infected in HEK293T cells by p24 ELISA based phenotypic assay; format: functional, organism-based; conditions: HEK-293T
[10] = tested on: Human immunodeficiency virus 1; assay: Antiviral activity against HIV1 containing reverse transcriptase M230I mutant infected in HEK293T cells by p24 ELISA based phenotypic assay; format: functional, organism-based; conditions: HEK-293T
[11] = tested on: Human immunodeficiency virus 1; assay: Antiviral activity against HIV1 containing reverse transcriptase K101P mutant infected in HEK293T cells by p24 ELISA based phenotypic assay; format: functional, organism-based; conditions: HEK-293T

Structure (SMILES) | pIC50 [1] | CC50 [3] [nM] | also measured
NNC(=O)c1[nH]c2ccc(Cl)cc2c1C1(c2ccccc2)CC1 | 5.36 |  | 
Cc1ccnc2c1NC(=O)c1cccnc1N2C1CC1 [NEVIRAPINE] | 6.92 |  | pIC50 [2]: 7.00
CCOC(=O)c1[nH]c2ccc(Cl)cc2c1C1(c2cccs2)CC1 |  |  | pIC50 [2]: 7.19
CCOC(=O)c1[nH]c2ccc(Cl)cc2c1C1(c2ccccc2)CC1 | 5.32 |  | pIC50 [2]: 7.07
COC(c1ccccc1)c1c[nH]c2ccc(Cl)cc12 (centres undefined) | 5.61 | 67000 | 
CCOC(=O)c1[nH]c2ccc(Cl)cc2c1C(OC)c1ccccc1 (centres undefined) | 7.70 | 25300 | inhibition [4]: Active; inhibition [5]: inactive; inhibition [6]: inactive; inhibition [7]: inactive
O=C(OCCO)c1[nH]c2ccc(Cl)cc2c1C1(c2ccccc2)CC1 | 6.15 |  | 
CCOC(=O)c1[nH]c2ccc(Cl)cc2c1C(OC)c1cc(C)cc(C)c1 (centres undefined) | 7.52 | 36500 | inhibition [8]: Active; inhibition [9]: Active; inhibition [4]: Active; inhibition [5]: inactive; inhibition [6]: Active; inhibition [10]: Active; inhibition [7]: Active; inhibition [11]: Active
COC(c1cc(C)cc(C)c1)c1c[nH]c2ccc(Cl)cc12 (centres undefined) | 6.52 | 67700 | 
CCOC(=O)c1[nH]c2ccc(Cl)cc2c1C(O)c1ccccc1 (centres undefined) | 5.94 | 22700 | 
O=C(NCCO)c1[nH]c2ccc(Cl)cc2c1C1(c2ccccc2)CC1 | 6.68 |  | 
COC(c1ccccc1)c1c(S(=O)(=O)C(F)(F)F)[nH]c2ccc(Cl)cc12 (centres undefined) | 5.92 | 24200 | 
CCOC(=O)c1[nH]c2ccc(Cl)cc2c1C(OCC)c1ccccc1 (centres undefined) | 7.52 | 22800 | 
